Laboratory results: US20110207697A1, “XANTHOHUMOL COMPOSITIONS AND METHODS FOR TREATING SKIN DISEASES OR DISORDERS” (Betal, LLC, priority 2008, published 2011)
Converted amounts (≈) assume the structure as drawn. Where two headings read alike, the source gives them in different places.

What was measured:
[1] = HORAC hydroxyl radical ORAC; conditions: FIG. 2 radar chart
Method: (§1) [table] […] The SOAC scores are not included in this figure; ORAC values used are the sum of lipophilic and hydrophilic results. For each assay category, scaling was made logarithmic so that the plot on the chart resembles the associated rating. […] The larger the spatial area, the higher the overall antioxidative capacity. […] Both hydrophilic and lipophilic oxygen radical absorbance capacity (ORAC) assays were carried out at Brunswick Laboratory (Wareham, Mass.) based on the modified ORACfl method reported by Ou et al. (2001 J. Agric. Food Chem. 49: 4619-4626, 2002 J. Agr. Food Chem. 50: 3122-3128). Trolox, a water-soluble vitamin E analog, was used as the calibration standard. The data are expressed as mmole of Trolox equivalents per gram (mmol TE/g). The acceptable precision of the ORAC assay is a 15% relative standard deviation. […] Hydroxyl radical ORAC (HOR-AC) is expressed as mmole caffeic acid equivalent per gram (mmol CAE/g). […] The peroxyl nitrite ORAC (NORAC) result is expressed as mmol TE/g. Alpha-tocopherol (vitamin E) was used as the calibration standard, and the singlet oxygen absorbance capacity (SOAC) result is expressed as mmole a-tocopherol equivalent (mmol VtE) per gram (Aubry et al. 1989). […] Radical-scavenging activity was measured by the change in absorbance at 517 nm with the DPPH result expressed as mmol TE/g. […] The FRAP result is expressed as mmol TE/g (Ou et al. 2002b). […]

S. aureus (ATCC 6538P) = experiment: Antimicrobial susceptibility, broth dilution (MIC/MBC); type: cell-based, Staphylococcus aureus
Method: (§2) The antibacterial effects of seven hops components against five different strains of bacteria involved in primary or secondary skin and soft tissue infections was evaluated, with broth dilution methods. […] Antimicrobial susceptibility testing was performed using a broth dilution method. Gentamicin or ampicillin was used as a control to verify the methodology. A stock solution (20 mg/ml) of the test substance (or vehicle control) was prepared in dimethyl sulfoxide. Serial dilution was done in microwell plates. Reinforced Clostridial Medium was used for P. acnes (ATCC 6919). Three hundreds […] of the test substance was added to the test tube containing P. acnes (10^5 CFU/ml) in 2.7 ml of cultures grown under anaerobic conditions. Mueller-Hinston Broth suitable for culturing S. epidermidis (ATCC 12228), K. rhizophila (formerly M. luteus) (ATCC 9341), and S. aureus (ATCC […]), and Brain Heart Infusion Broth suitable for culturing S. pyogenes (ATCC 14289) were used. A total of […] of the test substance was added to the test tube containing the other microorganisms (10^5CFU/ml) in 0.9 ml of cultures grown under controlled conditions. […] Samples from those tubes that scored positive was plated onto an agar plate and incubated under controlled conditions.

SOD antioxidant assay = conditions: FIG. 2 radar chart
Method: as §1

[2] = Hydrophilic oxygen radical absorbance capacity (ORAC-H); conditions: water-soluble antioxidant capacity; expressed as mmol TE/g; — = No activity detected
Description: Thus the ORAC method has become a widely used method for assessing antioxidant capacity in biological samples and foods. However, because of its inability to measure both hydrophilic and lipophilic antioxidants, the method has its limitations. An ORAC method for lipophilic antioxidants was further developed and validated using fluorescein as the fluorescent probe (Prior et al. 2003 J. Agric. Food Chem. 51: 3273-3279). […] In the present work, the ORAC value is expressed as the sum of values of both the water-soluble and fat-soluble parts. […] Both hydrophilic and lipophilic oxygen radical absorbance capacity (ORAC) assays were carried out at Brunswick Laboratory (Wareham, Mass.) based on the modified ORACfl method reported by Ou et al. (2001 J. Agric. Food Chem. 49: 4619-4626, 2002 J. Agr. Food Chem. 50: 3122-3128). Trolox, a water-soluble vitamin E analog, was used as the calibration standard. The data are expressed as mmole of Trolox equivalents per gram (mmol TE/g). […] Hydroxyl radical ORAC (HOR-AC) is expressed as mmole caffeic acid equivalent per gram (mmol CAE/g). […] The peroxyl nitrite ORAC (NORAC) result is expressed as mmol TE/g. […] Radical-scavenging activity was measured by the change in absorbance at 517 nm with the DPPH result expressed as mmol TE/g. […] The FRAP result is expressed as mmol TE/g (Ou et al. 2002b).

P. acnes (ATCC 6919) = experiment: Antimicrobial susceptibility, broth dilution (MIC/MBC); type: cell-based, Propionibacterium acnes
Method: as §2

[3] = test system: S. epidermidis (ATCC 12228); experiment: as above; type: cell-based, Staphylococcus epidermidis
Method: as §2

[4] = test system: K. rhizophila (formerly M. luteus) (ATCC 9341); experiment: as above; type: cell-based, Kocuria rhizophila
Method: as §2

MIC (S. aureus (ATCC 6538P); 1 day): 1 µg/mL (≈ 2.82 µM)
MIC (S. aureus (ATCC 6538P); Staphylococcus aureus, ATCC6538P): 1000 µg/mL (≈ 2820 µM)
MIC (P. acnes (ATCC 6919); minimal 100% inhibitory concentration, 2 days): 3 µg/mL (≈ 8.46 µM)
MIC ([3]; 1 day): 3 µg/mL (≈ 8.46 µM)
MIC ([3]; Staphylococcus epidermidis, ATCC12228): 1000 µg/mL (≈ 2820 µM)
MIC ([4]; 1 day): 1 µg/mL (≈ 2.82 µM)
MIC ([4]; Kocuria rhizophila, ATCC9341): 1000 µg/mL (≈ 2820 µM)
SMILES: COc1cc(O)c(CC=C(C)C)c(O)c1C(=O)/C=C/c1ccc(O)cc1 [Xanthohumol (7), 3′-[3,3-dimethylallyl]-2′,4′,4-trihydroxy-6′-methoxychalcone]
quenching activity against hydroxyl radical (HORAC), rank among hop components [1]: highest quenching activity
MBC (S. aureus (ATCC 6538P)): [100] g/mL
quenching activity against superoxide (SOD), rank among hop components (SOD antioxidant assay): highest quenching activity
ORAC-H (Trolox equivalent) [2]: 2.1 Trolox equivalent
MBC (P. acnes (ATCC 6919); Cutibacterium acnes, ATCC6919, read-out: MBC): 3000 µg/mL (≈ 8460 µM)
MBC (P. acnes (ATCC 6919); lowest concentration required to kill): [3] g/mL
MBC [3]: [10] g/mL
MBC [4]: [10] g/mL
